# Reference: ChEMBL document CHEMBL1201862, “PubChem BioAssay data set” (2004)
#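 The compound was tested at five concentrations on cells cultured in 96-well plates, with a 48-hour exposure period. GI50 is the concentration that inhibits growth by half.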 Activity calls are given as the source filed them. Rule as the data show it: active = GI50 up to about 1.1 µM and inactive = higher.
# Columns and labels:
# Test in all cases: NCI tumour cell line growth inhibition, 48 h
# [1] = system: 786-0
# [2] = system: CCRF-CEM
# [3] = system: DU-145
# [4] = system: HCC 2998
# [5] = system: HCT-15
# [6] = system: HOP-62
# [7] = system: HOP-92
# [8] = system: HT-29
# [9] = system: MCF7
# [10] = system: MDA-N
# [11] = system: Malme-3M
# [12] = system: NCI-H226
# [13] = system: NCI-H460
# [14] = system: NCI/ADR-RES
# [15] = system: PC-3
# [16] = system: SK-OV-3
# [17] = system: SN12C
# [18] = system: SNB-75
# [19] = system: SW-620
# [20] = system: TK-10
SMILES,GI50 [1],GI50 [2],GI50 [3],GI50 [4],GI50 [5] [nM],GI50 [6],GI50 [7],GI50 [8],GI50 [9],GI50 [10],GI50 [11],GI50 [12],GI50 [13],GI50 [14],GI50 [15],GI50 [16],GI50 [17],GI50 [18],GI50 [19],GI50 [20]
NCC(=O)NC(CO)C(=O)O (stereo not given),> 100000 nM (inactive),> 100000 nM (inactive),> 100000 nM (inactive),> 100000 nM (inactive),> 100000,> 100000 nM (inactive),> 100000 nM (inactive),> 100000 nM (inactive),> 100000 nM (inactive),> 100000 nM (inactive),> 100000 nM (inactive),> 100000 nM (inactive),> 100000 nM (inactive),> 100000 nM (inactive),> 100000 nM (inactive),> 100000 nM (inactive),> 100000 nM (inactive),> 100000 nM (inactive),> 100000 nM (inactive),> 100000 nM (inactive)
CCCCCCCC/C=C\CCCCCCC/C=C1/C[C@](/C=C/C(=O)OC)(CO)OC1=O,908 nM (active),1010 nM (active),9060 nM (inactive),4180 nM (inactive),8410,3440 nM (inactive),2400 nM (inactive),7710 nM (inactive),7410 nM (inactive),773 nM (active),2150 nM (inactive),5140 nM (inactive),2150 nM (inactive),10400 nM (inactive),2580 nM (inactive),10900 nM (inactive),2860 nM (inactive),7660 nM (inactive),2660 nM (inactive),2680 nM (inactive)
CN(C)c1ccc(C(=N/N=C2\C(=O)Nc3ccccc32)c2ccc(N(C)C)cc2)cc1,859 nM (active),935 nM (active),1910 nM (inactive),643 nM (active),188,933 nM (active),12800 nM (inactive),348 nM (active),266 nM (active),61.4 nM (active),2170 nM (inactive),6890 nM (inactive),405 nM (active),218 nM (active),1580 nM (inactive),1370 nM (inactive),1670 nM (inactive),214 nM (active),247 nM (active),1730 nM (inactive)
CN(C)CCN(C)c1ccc2c(=O)n(CCN(C)C)c(=O)n3c4ccccc4c(=O)c1c23,108 nM (active),< 25.8 nM (active),128 nM (active),454 nM (active),179,89.7 nM (active),145 nM (active),397 nM (active),345 nM (active),859 nM (active),1230 nM (inactive),290 nM (active),29 nM (active),2290 nM (inactive),973 nM (active),1550 nM (inactive),96.4 nM (active),316 nM (active),119 nM (active),1510 nM (inactive)
